# Laboratory results as given in patent EP1377579B1 (Aventis Pharmaceuticals Inc., priority 2000, dated 2002).
# Read-outs that look alike come from different tables or passages of the source.
# Assays:
# [1] = test system: NCI-H460; test: In vitro proliferation assay (MTT), NCI-H460; format: cell-based; conditions: Homo sapiens
# Outline: (§1)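 IC50 values come from live-cell estimates based on MTT reduction measured at 570 nm after 3 days of compound treatment. Cells are seeded at 1000 to 2500 per well in serum-supplemented RPMI 1640. They are stained with MTT for 2 to 4 hr at 37 C and the dye is then taken up in DMSO.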
# [2] = test system: HL-60; test: In vitro proliferation assay (MTT), HL-60; format: cell-based; conditions: Homo sapiens, HL-60; MTT assay; value (SD, n) where given; read-out: HL-60 Leuk. (IC50 µM)
# Outline: as §1
# [3] = test system: PC-3; test: In vitro proliferation assay (MTT), PC-3; format: cell-based, human; conditions: Homo sapiens
# Outline: (§2)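 Step one: plate 1000 to 2500 cells per well and let them recover overnight. Step two: treat with compound for 3 days. Step three: add MTT, dissolve dye in DMSO, read absorbance at 570 nm and determine IC50.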
# [4] = test system: cortical neuronal death; conditions: cited from earlier work; for IC50: Park et al. 1997, read-out: IC50, protection against camptothecin-induced cortical neuronal death
# [5] = test system: Colo-205; test: In vitro proliferation assay (MTT), Colo-205; format: cell-based; conditions: Homo sapiens
# Outline: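 After 3 days of compound exposure, MTT was added to Colo-205 cultures for 2–4 h at 37 °C. Formazan was dissolved in DMSO and absorbance read at 570 nm. Cells had been plated at 1000–2500/well and left to recover overnight; IC50 values came from the raw readings.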
# [6] = test system: Jurkat; test: In vitro proliferation assay (MTT), Jurkat; format: cell-based; conditions: Homo sapiens, MTT assay, value (SD, n) where given, read-out: Jurkat Leuk. (IC50 µM)
# Outline: as §1
# [7] = test system: neuronally differentiated PC12 cells, rat sympathetic neurons; conditions: cited from earlier work; for concentration of maximal protection from death: camptothecin-treated PC12 cells or rat sympathetic neurons; for cell death: camptothecin-treated, at day 6
# [8] = test system: MDA-MB-435; test: In vitro proliferation assay (MTT), MDA-MB-435; format: cell-based, human; conditions: Homo sapiens
# Outline: as §2
# [9] = in vivo; conditions: male, Hsd:ICR (CD-1), mouse, plasma, iv
# Description: (§7) Male mice are given single intravenous cassette doses of CDK inhibitor compounds.
# (§8) Doses are adjusted for the weight of the individual dihydrochloride and trihydrochloride salts. The compounds are stored desiccated within a closed cabinet at room temperature before use. Dose levels are prepared on the morning of each study.
# (§9) A single intravenous cassette dose (18 or 15 mg/kg free base) is administered. For each compound, this is equivalent to a dose of approx. 3 mg/kg free base. […] The dose is administered at a volume of 10 ml/kg (total volume of approximately 0.25 ml/animal).
# (§10) Male mice (Hsd:ICR (CD-1® SD®), Harlan), each weighing approximately 20 - 30 g at the start of the study. […] Water is available ad libitum throughout the study.
# (§11) Dose Administration and Sample Collection: • A single cassette dose of 5-6 compounds is administered by bolus injection into the tail vein over a 10 - 15-second period. […] Whole blood (approximately 0.6 ml/sample) is obtained by cardiac puncture and transferred to 3 ml glass tubes containing 45 U sodium heparin.
# (§12) Sample Processing: Plasma: Whole blood is centrifuged at approximately 3,200 rpm for 10 min at approximately 5°C and the plasma (approx. 0.3 ml/sample) is transferred to chilled plastic vials and stored at approx. -70°C until bioanalysis.
# (§13) Sample Analysis: Concentrations of each test article in plasma are quantitated by a non-validated method based on LC/MS using the following protocol.
# (§14) Samples are removed from the freezer, allowed to thaw at room temperature, and vortexed to insure complete homogenization prior to sample manipulation. Samples are then prepared according to the following scheme: • 1. transfer 48 µL of plasma (blank mouse sample) into a 12 x 75 mm test tube. • 2. add 12 µL of working standard to the blank plasma for standard curve preparation. • 3. […] Inject 25 µL on LC/MS.
# (§15) Data Analysis: Concentrations of Compounds in plasma of individual animals are determined by bioanalytics. […] Statistical analyses are limited to simple expressions of variation (mean and standard deviation). The plasma AUC (area-under-curve) is determined by the linear trapezoidal rule. […] All PK parameters are determined by noncompartmental methods using WinNonlin version 3.0 (Pharsight Corp). Plasma vs. time profiles are prepared by Sigma Plot (SPSS, Inc.).
# [10] = target: cdk4/cyclin D1 (Homo sapiens, UniProt P11802); test: Cyclin-dependent kinase assay, cdk4/cyclin D1; format: biochemical; conditions: cyclin D1/cdk4; GST-pRb substrate, 10 µM ATP
# Sequence of cdk4/cyclin D1 (P11802 whole entry): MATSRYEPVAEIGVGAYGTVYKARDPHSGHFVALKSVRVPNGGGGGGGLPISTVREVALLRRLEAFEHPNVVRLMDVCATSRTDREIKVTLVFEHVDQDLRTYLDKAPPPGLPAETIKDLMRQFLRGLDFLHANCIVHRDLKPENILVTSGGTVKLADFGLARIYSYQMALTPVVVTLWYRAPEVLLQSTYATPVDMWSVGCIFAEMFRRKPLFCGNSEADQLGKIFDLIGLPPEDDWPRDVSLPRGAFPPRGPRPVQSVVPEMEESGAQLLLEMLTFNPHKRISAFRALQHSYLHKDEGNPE
# Sequence of cdk4/cyclin D1 (P24385 whole entry partner): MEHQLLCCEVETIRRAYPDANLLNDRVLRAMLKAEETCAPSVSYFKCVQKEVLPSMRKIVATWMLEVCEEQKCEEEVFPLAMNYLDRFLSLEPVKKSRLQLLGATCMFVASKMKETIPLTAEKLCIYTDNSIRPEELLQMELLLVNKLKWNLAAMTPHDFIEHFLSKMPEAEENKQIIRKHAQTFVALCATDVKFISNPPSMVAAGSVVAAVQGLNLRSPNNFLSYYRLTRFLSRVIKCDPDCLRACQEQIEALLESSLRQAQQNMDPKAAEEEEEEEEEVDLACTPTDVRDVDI
# [11] = target: cdk2/cyclin E (Homo sapiens, UniProt P24941); test: Cyclin-dependent kinase assay, cdk2/cyclin E; conditions: CDK2 IC50, nM, GST-pRb substrate, 10 µM ATP
# [12] = Bioavailability experiment in mice given single intravenous cassette doses
# Description: as §7, §8, §9, §10, §11, §12, §13, §14, §15
# [13] = target: cdk1/cyclin B (Homo sapiens, UniProt P06493); test: Cyclin-dependent kinase assay, cdk1/cyclin B; conditions: CDK1 IC50, nM, Histone H1, 10 µM ATP
# Sequence of cdk1/cyclin B (P06493 whole entry): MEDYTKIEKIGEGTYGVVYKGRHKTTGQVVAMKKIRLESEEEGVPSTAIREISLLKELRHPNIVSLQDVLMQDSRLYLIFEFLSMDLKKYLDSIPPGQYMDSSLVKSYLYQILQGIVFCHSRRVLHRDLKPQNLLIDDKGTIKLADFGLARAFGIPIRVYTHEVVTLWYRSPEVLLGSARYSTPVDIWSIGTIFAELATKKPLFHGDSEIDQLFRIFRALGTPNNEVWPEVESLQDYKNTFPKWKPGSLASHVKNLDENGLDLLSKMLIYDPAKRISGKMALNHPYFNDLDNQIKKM
# Sequence of cdk1/cyclin B (P14635 whole entry partner): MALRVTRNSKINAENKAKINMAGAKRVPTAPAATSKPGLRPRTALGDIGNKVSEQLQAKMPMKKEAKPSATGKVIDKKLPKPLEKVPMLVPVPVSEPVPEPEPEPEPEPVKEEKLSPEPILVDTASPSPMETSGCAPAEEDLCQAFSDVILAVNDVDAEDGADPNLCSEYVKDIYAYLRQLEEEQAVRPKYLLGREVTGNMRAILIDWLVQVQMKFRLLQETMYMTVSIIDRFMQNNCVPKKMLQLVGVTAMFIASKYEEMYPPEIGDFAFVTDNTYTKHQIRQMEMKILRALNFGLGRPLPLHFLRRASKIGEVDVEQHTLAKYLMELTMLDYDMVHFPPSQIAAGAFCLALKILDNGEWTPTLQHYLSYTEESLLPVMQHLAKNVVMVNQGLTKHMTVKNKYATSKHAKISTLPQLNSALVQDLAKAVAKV
# [14] = test system: HL-60 Human Leukemia; test: HL-60 human leukemia xenograft in nude mice; format: in vivo; conditions: Table 5
# Description: (§3) Antitumor efficacy is assessed using two subcutaneous human tumor xenograft models. The studies are performed using conventional assay techniques. Briefly, HL-60 (leukemia, 5 x10^5 cells) and PC-3 (prostate, 5 x 10^6 cells) tumor cells are injected subcuateously into nude mice (Crl-CD1-Br-nu, Charles River Laboratory, Wilmington, MA). Dosing with compounds began when tumors reached 50 to 100 mm^3. The dose route/schedule for the test compounds is ip/qld (5x/wk). The test doses are set based on the maximum tolerated dose (MTD). […] The test doses for the efficacy studies are set at 1/3rd the MTD (low dose) and the MTD (high dose). The results are shown in Tables 4 and 5 (HL-60, leukemia) (PC-3, prostate cancer). The length of the treatment phase is dependent on the tumor growth rate for the two models. This treatment phase is typically about 3 weeks for the HL-60 model and about 5 weeks for the PC-3 model. […] Dosing with flavopiridol is for the same time frame as for the experimental compounds in both xenograft models. Tumor volume (twice weekly) and body weights (once weekly) are monitored throughout the course of the treatment phase of the experiment. Tumor sizes are measured by external caliper measurements of protruding tumor. Volumes are calculated using the following formula: volume =½ (a x b2), where b is the smaller of two perpendicular diameters.
# [15] = Red blood cell binding, human whole blood; format: in vitro ADME; conditions: 30 minutes at 37°C, 500 ng/ml
# Description: (§4) Compounds, including one positive control, are assessed for red blood cell (RBC) uptake, using a modified procedure based on the protocol reported in Sun, J.X.S., et al. High-performance liquid chromatographic analysis, plasma protein binding and red blood cell partitioning of phenprobamate. Biopharmaceutics and Drug Disposition, 8 (1987) 341-351.
# (§5) Briefly, RBC uptake is evaluated by comparison of the levels in spiked plasma (n=3) and plasma isolated from spiked whole blood (n=3). Compounds are incubated with human and mouse whole blood, respectively, for 30 minutes at 37°C using a nominal concentration of 500 ng/ml. Following centrifugation, the plasma is removed and submitted for analysis. Each compound is also spiked into blank plasma at a nominal concentration of 500 ng/ml, and submitted for analysis. Levels in the two plasma samples (Cp' and Cp in the equation below) and the blood hematocrit are used to determine the red blood cell to plasma ratio (Crbc/Cp). (Crbc)/(Cp) = (Cpʹ)/(Cp•H)-((1-H))/(H) [formula] In equation 1, Cp' is the level of drug in the spiked "blank" plasma, Cp is the level of drug in the plasma of spiked whole blood, and H is the hematocrit. The hematocrit values are determined as 0.4 for human whole blood and 0.41 for mouse whole blood. The samples are analyzed with ESI LC/MS, using positive ion detection with an internal standard.
# (§6) The red blood cell to plasma ratio is determined for each compound using equation 1. Tables 6 and 7 summarize the respective mean Crbc/Cp values and standard deviations for mouse and human whole blood, respectively, in descending order based on the red blood cell to plasma ratio, where"*" denotes Positive Control, and "ND" denotes Not Determined. MDL 108552 is included as a positive control for red blood cell uptake. Table 6. Red Blood Cell to Plasma Ratio for compounds in mouse whole blood
# [16] = Red blood cell binding, mouse whole blood; format: in vitro ADME; conditions: 30 minutes at 37°C, 500 ng/ml
# Description: as §4, §5, §6
# [17] = test system: PC-3 Human Prostate Tumors; test: PC-3 human prostate tumor xenograft in nude mice; format: in vivo; set-up: unit not given here; conditions: Table 5
# Description: as §3
# [18] = camptothecin-treated neuronal cells
structure (smiles),measurement,setting,value
"CN1CC[C@H](c2c(O)cc(O)c3c(=O)cc(-c4ccccc4Cl)oc23)[C@H](O)C1 [Flavopiridol, flavopiridol, reference compound]",IC50,"[1]; NCI-H460, MTT assay, value (SD, n) where given, read-out: H-460 Lung (IC50 µM)",0.07 µM
same,IC50,[2],0.02 µM
same,IC50,"[3]; PC-3, MTT assay, value (SD, n) where given, read-out: PC-3 Prostate (IC50 µM)",0.08 µM
same,IC50,[4],100 nM
same,IC50,"[5]; COLO 205, MTT assay, value (SD, n) where given, read-out: Colo-205 Colon (IC50 µM)",0.03 µM
same,IC50,[6],0.08 µM
same,concentration of maximal protection from death,[7],1 µM
same,cell death,[7],approximately 30%
same,IC50,"[8]; MDA-MB-435, MTT assay, value (SD, n) where given, read-out: MB-435 Breast (IC50 µM)",0.09 µM
"Cn1cnc2c(NCc3ccccc3)nc(NCCO)nc21 [Olomoucine, 6-(benzylamino)-2-[(2-hydroxyethyl)amino]-9-methylpurine]",IC50,[4],100000 nM
same,concentration of maximal protection from death,[7],200 µM
same,cell death,[7],approximately 30%
"Cl.Cl.N[C@H]1CC[C@H](Nc2nc(NC3CCN(C(=O)Oc4ccccc4)CC3)c3ncn(C4CCCC4)c3n2)CC1 [compound 85, trans-4-[2-(4-Amino-cyclohexylamino)-9-cyclopentyl-9H-purin-6-ylamino]-piperidine-1-carboxylic acid phenyl ester dihydrochloride]",AUC(0-inf),[9]; 3 mg/kg,467 ng·h/mL
same,Cmax,[9]; 3 mg/kg,843 ng/mL
same,half-life,[9]; 3 mg/kg,2.3 h
same,concentration at 0.083 h,[9]; 18 mg/kg,843 ± 124 ng/mL
same,concentration at 0.25 h,[9]; 18 mg/kg,342 ± 45.1 ng/mL
same,concentration at 0.5 h,[9]; 18 mg/kg,164 ± 15.7 ng/mL
same,concentration at 1 h,[9]; 18 mg/kg,89 ± 21.5 ng/mL
same,concentration at 3 h,[9]; 18 mg/kg,14.3 ± 7.1 ng/mL
same,concentration at 6 h,[9]; 18 mg/kg,5.2 ± 1.9 ng/mL
same,concentration at 8 h,[9]; 18 mg/kg,3.2 ± 0.8 ng/mL
same,IC50,"[1]; NCI-H460, read-out: H-460 Lung (IC50 µM)",0.06 µM
same,IC50,[10],65 nM
same,IC50,"[3]; PC-3, read-out: PC-3 Prostate (IC50 µM)",0.06 µM
same,IC50,[11],8 nM
same,Conc. (ng/ml) in plasma,"[12]; Cassette #1, single 18 mg/kg intravenous cassette dose, mice, 24 h, BLQ = below assay quantification limit",BLQ
same,Cls,"[12]; mice plasma, single intravenous cassette dose, 3 mg/kg/compound (18 mg/kg Total Dose), Cassette #1",107.1 mL/min/kg
same,IC50,"[5]; COLO 205, read-out: Colo-205 Colon (IC50 µM)",0.03 µM
same,IC50,[13],26 nM
same,HL60 Mean Vol. ± SD,[14]; dose 1 mg/kg ip,3590 ± 2674
same,HL60 Mean Vol. ± SD,[14]; dose 3 mg/kg ip,5215 ± 4068
same,Mean Red Blood Cell to Plasma Ratio,[15],7.1
same,IC50,"[8]; MDA-MB-435, read-out: MB-435 Breast (IC50 µM)",0.03 µM
same,Mean Red Blood Cell to Plasma Ratio,[16],6.1
same,PC-3 Mean Vol. ± SD,[17]; dose 1 mg/kg ip,912 ± 755
same,PC-3 Mean Vol. ± SD,[17]; dose 3 mg/kg ip,1208 ± 1247
Cn1cnc2nc(NCCO)nc(NCc3ccccc3)c21 [iso-olomoucine],prevention of cell death,[4]; [18],failed to prevent the cell death
same,prevention of cell death,[7]; [18],failed to prevent the cell death
